In the supplement of paper PMC13207355:

Experiments:
Settings in all cases: exposure time: 72 h
FT3469 [1] = normal neural stem cell line; assay: surviving fraction (nuclei count normalised to DMSO); higher = more cells surviving (less toxic)
E57 [2] = patient-derived glioblastoma stem cells of mesenchymal subtype; assay: as above
E31 [3] = patient-derived glioblastoma stem cells of proneural subtype; assay: as above
E34 [4] = patient-derived glioblastoma stem cells of proneural subtype; assay: as above
E28 [5] = patient-derived glioblastoma stem cells of classical subtype; assay: as above
E21 [6] = patient-derived glioblastoma stem cells of mesenchymal subtype; assay: as above
E13 [7] = patient-derived glioblastoma stem cells of classical subtype; assay: as above
FT3469 [8] = assay: phenotypic distance (Euclidean, principal components) from DMSO controls (arbitrary units); higher = stronger morphological change
E57 [9] = assay: as above
E31 [10] = assay: as above
E34 [11] = assay: as above
E28 [12] = assay: as above
E21 [13] = assay: as above
E13 [14] = assay: as above
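Wherever phenotypic distance (Euclidean, principal components) from DMSO controls is given: cell Painting imaging in 384-well plates, CellProfiler features reduced to at least 20 principal components, Euclidean distance versus same-plate DMSO vehicle wells (0.1% v/v), median over six images per well.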
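Wherever surviving fraction (nuclei count normalised to DMSO) is given: nuclei counted by high-content imaging of Hoechst-stained cells in laminin-coated 384-well plates, relative to 0.1% DMSO vehicle wells, with staurosporine as cell-death control.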

C/C=C(\C)C(=O)N[C@@H](c1ccccc1)[C@@H](O)C(=O)O[C@H]1C[C@@]2(O)[C@@H](OC(=O)c3ccccc3)[C@@H]3[C@]4(OC(C)=O)CO[C@@H]4C[C@H](O)[C@@]3(C)C(=O)[C@H](OC(C)=O)C(=C1C)C2(C)C [Cephalomannine]
Settings | phenotypic distance | surviving fraction
E13 [7], 4.11523 nM | – | 0.308
E13 [7], 12.34567901 nM | – | 0.245
E13 [7], 37.037 nM | – | 0.27
E13 [7], 111.1111111 nM | – | 0.137
E13 [7], 333.333 nM | – | 0.171
E13 [7], 1000 nM | – | 0.171
E13 [7], 3000 nM | – | 0.19
E13 [14], 4.11523 nM | 4.23 | –
E13 [14], 12.34567901 nM | 4.51 | –
E13 [14], 37.037 nM | 4.54 | –
E13 [14], 111.1111111 nM | 6.45 | –
E13 [14], 333.333 nM | 5.33 | –
E13 [14], 1000 nM | 5.74 | –
E13 [14], 3000 nM | 5.58 | –
E21 [6], 4.11523 nM | – | 0.335
E21 [6], 12.34567901 nM | – | 0.327
E21 [6], 37.037 nM | – | 0.209
E21 [6], 111.1111111 nM | – | 0.246
E21 [6], 333.333 nM | – | 0.213
E21 [6], 1000 nM | – | 0.214
E21 [6], 3000 nM | – | 0.198
E21 [13], 4.11523 nM | 4.99 | –
E21 [13], 12.34567901 nM | 5.05 | –
E21 [13], 37.037 nM | 5.62 | –
E21 [13], 111.1111111 nM | 6.2 | –
E21 [13], 333.333 nM | 5.44 | –
E21 [13], 1000 nM | 6.44 | –
E21 [13], 3000 nM | 7.14 | –
E28 [5], 4.11523 nM | – | 0.515
E28 [5], 12.34567901 nM | – | 0.557
E28 [5], 37.037 nM | – | 0.304
E28 [5], 111.1111111 nM | – | 0.357
E28 [5], 333.333 nM | – | 0.302
E28 [5], 1000 nM | – | 0.286
E28 [5], 3000 nM | – | 0.249
E28 [12], 4.11523 nM | 3.22 | –
E28 [12], 12.34567901 nM | 3.3 | –
E28 [12], 37.037 nM | 3.65 | –
E28 [12], 111.1111111 nM | 3.5 | –
E28 [12], 333.333 nM | 3.82 | –
E28 [12], 1000 nM | 3.7 | –
E28 [12], 3000 nM | 4.32 | –
E31 [3], 4.11523 nM | – | 0.23
E31 [3], 12.34567901 nM | – | 0.132
E31 [3], 37.037 nM | – | 0.12
E31 [3], 111.1111111 nM | – | 0.11
E31 [3], 333.333 nM | – | 0.0834
E31 [3], 1000 nM | – | 0.12
E31 [3], 3000 nM | – | 0.148
E31 [10], 4.11523 nM | 3.6 | –
E31 [10], 12.34567901 nM | 4.39 | –
E31 [10], 37.037 nM | 3.82 | –
E31 [10], 111.1111111 nM | 4.56 | –
E31 [10], 333.333 nM | 4.66 | –
E31 [10], 1000 nM | 3.37 | –
E31 [10], 3000 nM | 3.61 | –
E34 [4], 4.11523 nM | – | 0.497
E34 [4], 12.34567901 nM | – | 0.442
E34 [4], 37.037 nM | – | 0.356
E34 [4], 111.1111111 nM | – | 0.284
E34 [4], 333.333 nM | – | 0.293
E34 [4], 1000 nM | – | 0.356
E34 [4], 3000 nM | – | 0.382
E34 [11], 4.11523 nM | 3.55 | –
E34 [11], 12.34567901 nM | 3.84 | –
E34 [11], 37.037 nM | 3.81 | –
E34 [11], 111.1111111 nM | 3.17 | –
E34 [11], 333.333 nM | 3.79 | –
E34 [11], 1000 nM | 3.73 | –
E34 [11], 3000 nM | 3.93 | –
E57 [2], 4.11523 nM | – | 0.156
E57 [2], 12.34567901 nM | – | 0.125
E57 [2], 37.037 nM | – | 0.0853
E57 [2], 111.1111111 nM | – | 0.0579
E57 [2], 333.333 nM | – | 0.0628
E57 [2], 1000 nM | – | 0.0598
E57 [2], 3000 nM | – | 0.0598
E57 [9], 4.11523 nM | 5.45 | –
E57 [9], 12.34567901 nM | 5.1 | –
E57 [9], 37.037 nM | 5.59 | –
E57 [9], 111.1111111 nM | 5.43 | –
E57 [9], 333.333 nM | 5.14 | –
E57 [9], 1000 nM | 5.43 | –
E57 [9], 3000 nM | 5.27 | –
FT3469 [1], 4.11523 nM | – | 0.62
FT3469 [1], 12.34567901 nM | – | 0.646
FT3469 [1], 37.037 nM | – | 0.577
FT3469 [1], 111.1111111 nM | – | 0.441
FT3469 [1], 333.333 nM | – | 0.378
FT3469 [1], 1000 nM | – | 0.465
FT3469 [1], 3000 nM | – | 0.449
FT3469 [8], 4.11523 nM | 2.71 | –
FT3469 [8], 12.34567901 nM | 2.83 | –
FT3469 [8], 37.037 nM | 3.01 | –
FT3469 [8], 111.1111111 nM | 3.67 | –
FT3469 [8], 333.333 nM | 3.37 | –
FT3469 [8], 1000 nM | 3.99 | –
FT3469 [8], 3000 nM | 4.09 | –

N=C(NCCCCCCNC(=N)NC(=N)Nc1ccc(Cl)cc1)NC(=N)Nc1ccc(Cl)cc1 [Chlorhexidine]
Settings | phenotypic distance | surviving fraction
E13 [7], 4.1 nM | – | 1.03
E13 [7], 12.3 nM | – | 1.05
E13 [7], 37 nM | – | 0.948
E13 [7], 111.1 nM | – | 1.01
E13 [7], 333.3 nM | – | 0.969
E13 [7], 1000 nM | – | 0.943
E13 [7], 3000 nM | – | 0.409
E13 [14], 4.1 nM | 0.429 | –
E13 [14], 12.3 nM | 1.39 | –
E13 [14], 37 nM | 0.262 | –
E13 [14], 111.1 nM | 2.5 | –
E13 [14], 333.3 nM | 0.491 | –
E13 [14], 1000 nM | 0.464 | –
E13 [14], 3000 nM | 3.49 | –
E21 [6], 4.1 nM | – | 0.973
E21 [6], 12.3 nM | – | 1.01
E21 [6], 37 nM | – | 0.964
E21 [6], 111.1 nM | – | 0.946
E21 [6], 333.3 nM | – | 0.941
E21 [6], 1000 nM | – | 0.899
E21 [6], 3000 nM | – | 0.259
E21 [13], 4.1 nM | 0.562 | –
E21 [13], 12.3 nM | 0.828 | –
E21 [13], 37 nM | 0.696 | –
E21 [13], 111.1 nM | 0.95 | –
E21 [13], 333.3 nM | 0.783 | –
E21 [13], 1000 nM | 0.943 | –
E21 [13], 3000 nM | 6.35 | –
E28 [5], 4.1 nM | – | 1.05
E28 [5], 12.3 nM | – | 1.13
E28 [5], 37 nM | – | 1.1
E28 [5], 111.1 nM | – | 1.16
E28 [5], 333.3 nM | – | 1.11
E28 [5], 1000 nM | – | 0.694
E28 [5], 3000 nM | – | 0.289
E28 [12], 4.1 nM | 0.971 | –
E28 [12], 12.3 nM | 0.644 | –
E28 [12], 37 nM | 0.865 | –
E28 [12], 111.1 nM | 0.807 | –
E28 [12], 333.3 nM | 0.749 | –
E28 [12], 1000 nM | 1.41 | –
E28 [12], 3000 nM | 3.14 | –
E31 [3], 4.1 nM | – | 0.921
E31 [3], 12.3 nM | – | 0.969
E31 [3], 37 nM | – | 1.07
E31 [3], 111.1 nM | – | 1.04
E31 [3], 333.3 nM | – | 0.889
E31 [3], 1000 nM | – | 0.765
E31 [3], 3000 nM | – | 0.401
E31 [10], 4.1 nM | 0.524 | –
E31 [10], 12.3 nM | 0.525 | –
E31 [10], 37 nM | 0.809 | –
E31 [10], 111.1 nM | 0.944 | –
E31 [10], 333.3 nM | 1.22 | –
E31 [10], 1000 nM | 2.29 | –
E31 [10], 3000 nM | 2.76 | –
E34 [4], 4.1 nM | – | 0.914
E34 [4], 12.3 nM | – | 0.993
E34 [4], 37 nM | – | 0.955
E34 [4], 111.1 nM | – | 0.752
E34 [4], 333.3 nM | – | 1.03
E34 [4], 1000 nM | – | 0.892
E34 [4], 3000 nM | – | 0.659
E34 [11], 4.1 nM | 0.526 | –
E34 [11], 12.3 nM | 0.799 | –
E34 [11], 37 nM | 0.756 | –
E34 [11], 111.1 nM | 0.826 | –
E34 [11], 333.3 nM | 0.445 | –
E34 [11], 1000 nM | 0.747 | –
E34 [11], 3000 nM | 3.01 | –
E57 [2], 4.1 nM | – | 0.972
E57 [2], 12.3 nM | – | 1.03
E57 [2], 37 nM | – | 0.962
E57 [2], 111.1 nM | – | 1.03
E57 [2], 333.3 nM | – | 0.967
E57 [2], 1000 nM | – | 0.838
E57 [2], 3000 nM | – | 0.307
E57 [9], 4.1 nM | 0.332 | –
E57 [9], 12.3 nM | 0.353 | –
E57 [9], 37 nM | 0.497 | –
E57 [9], 111.1 nM | 0.85 | –
E57 [9], 333.3 nM | 0.64 | –
E57 [9], 1000 nM | 1.98 | –
E57 [9], 3000 nM | 4.85 | –
FT3469 [1], 4.1 nM | – | 1.05
FT3469 [1], 12.3 nM | – | 0.955
FT3469 [1], 37 nM | – | 1.1
FT3469 [1], 111.1 nM | – | 0.981
FT3469 [1], 333.3 nM | – | 0.883
FT3469 [1], 1000 nM | – | 0.806
FT3469 [1], 3000 nM | – | 0.537
FT3469 [8], 4.1 nM | 1.53 | –
FT3469 [8], 12.3 nM | 0.951 | –
FT3469 [8], 37 nM | 0.654 | –
FT3469 [8], 111.1 nM | 0.806 | –
FT3469 [8], 333.3 nM | 0.554 | –
FT3469 [8], 1000 nM | 1.03 | –
FT3469 [8], 3000 nM | 2.68 | –
